Assay results taken from the CombiSolv-Exp solvation set (Vermeire and Green 2021).

Test: solvent given as SMILES

CCCCCCCC
Conditions	solvation free energy, 298 K [kcal/mol]
in Brc1ccccc1	-5.05
in C1CCCCC1	-5.54
in C1CCOC1	-5.32
in C1COCCO1	-4.49
in C=CCCCC	-5.39
in C=CCCCCCC	-5.28
in C=CCCCCCCCC	-5.23
in CC1COC(=O)O1	-3.01
in CC#N	-3.63
in CC(=O)N(C)C	-3.96
in CC(=O)O	-3.96
in CC(=O)c1ccccc1	-4.29
in CC(C)(C)O	-4.62
in CC(C)=O	-4.41
in CC(C)CC(C)(C)C	-5.32
in CC(C)CCCC(C)CCCC(C)CCCCC(C)CCCC(C)CCCC(C)C	-4.83
in CC(C)CCO	-4.61
in CC(C)O	-4.4
in CC(C)OC(C)C	-5.29
in CC(Cl)Cl	-4.66
in CC(O)CO	-2.84
in CCBr	-5.39
in CCC(C)(C)OC	-5.28
in CCC(C)=O	-4.69
in CCCC#N	-4.33
in CCCC(=O)OCC	-4.94
in CCCC(C)=O	-4.81
in CCCCC	-5.43
in CCCCC(CC)COC(=O)CCCCC(=O)OCC(CC)CCCC	-4.69
in CCCCC(CC)COC(=O)c1ccccc1C(=O)OCC(CC)CCCC	-4.43
in CCCCCC	-5.42
in CCCCCC(C)=O	-4.83
in CCCCCCC	-5.37
in CCCCCCCCC	-5.23
in CCCCCCCCC=CCCCCCCCC(=O)OCC(COC(=O)CCCCCCCC=CCCCCCCCC)OC(=O)CCCCCCCC=CCCCCCCCC	-4.75
in CCCCCCCCCC	-5.2
in CCCCCCCCCCCC	-5.11
in CCCCCCCCCCCCCCCC	-5.01
in CCCCCCCCCCCCO	-4.65
in CCCCCCCCCCO	-4.53
in CCCCCCCCO	-4.62
in CCCCCCOC(C)=O	-4.92
in CCCCCO	-4.62
in CCCCO	-4.49
in CCCCOC(=O)c1ccccc1C(=O)OCCCC	-4.5
in CCCCOC(C)=O	-4.85
in CCCCOCCCC	-5.25
in CCCO	-4.41
in CCN1CCCC1=O	-4.09
in CCN(CC)C(C)=O	-4.35
in CCN(CC)CC	-5.5
in CCNC(C)=O	-4.09
in CCNC=O	-3.79
in CCO	-4.3
in CCOC(=O)c1ccccc1C(=O)OCC	-3.95
in CCOC(C)=O	-4.71
in CCOCC	-5.41
in CCOCCOCCOCC	-4.65
in CCOc1ccccc1	-4.77
in CN1CCCC1=O	-3.77
in CN1CCCCC1=O	-4.02
in CN(C)C=O	-3.75
in CN(C)P(=O)(N(C)C)N(C)C	-4.26
in CNC=O	-3.34
in CO	-3.86
in COC(C)=O	-4.49
in COCCO	-3.76
in COCCOCCOCCOCCOC	-4.01
in COc1ccccc1	-4.7
in CS(C)=O	-2.79
in Cc1ccc(C)cc1	-5.28
in Cc1cccc(C)n1	-4.92
in Cc1cccc(O)c1	-4.08
in Cc1ccccc1	-5.29
in Cc1ccccn1	-4.78
in ClC(Cl)(Cl)Cl	-5.45
in ClC(Cl)Cl	-5.32
in ClCCCl	-4.71
in ClCCl	-5.08
in Clc1ccccc1	-5.21
in FC(F)(F)C(F)(F)C(F)(F)C(F)(F)C(F)(F)C(F)(F)C(F)(F)C(F)(F)F	-3.45
in FC(F)(F)C(F)(F)C(F)(F)C(F)(F)C(F)(F)C(F)(F)F	-3.52
in Fc1c(F)c(F)c(F)c(F)c1F	-4.83
in Fc1ccccc1	-5.11
in ICI	-3.3
in Ic1ccccc1	-4.74
in N#CCCCCC#N	-2.96
in NC=O	-1.27
in NCCO	-1.74
in Nc1ccccc1	-3.52
in O=C1CCCCC1	-4.63
in O=C1CCCO1	-3.22
in O=CN1CCOCC1	-3.04
in OCCCCCO	-3.06
in OCCCCO	-2.87
in OCCCO	-2.59
in OCCOCCO	-2.35
in OCCOCCOCCOCCO	-2.71
in OCc1ccccc1	-3.81
in S=C=S	-5.53
in c1ccc2ncccc2c1	-4.22
in c1ccc(COCc2ccccc2)cc1	-4.28
in c1ccccc1	-5.25
in c1ccncc1	-4.49

CC(=O)OC(C)(C)C1CC=C(C)CC1 (stereo unspecified)
Conditions	solvation free energy, 298 K [kcal/mol]
in O	-3.41

Clc1c(Cl)c(Cl)c2c(c1Cl)Oc1c(Cl)c(Cl)c(Cl)c(Cl)c1O2
Conditions	solvation free energy, 298 K [kcal/mol]
in O	-4.53

CC#N
Conditions	solvation free energy, 298 K [kcal/mol]
in Brc1cccc2ccccc12	-3.45
in C1CCOC1	-4.3
in C1COCCO1	-4.45
in CC(=O)N(C)C	-4.8
in CC(=O)OCc1ccccc1	-4.08
in CC(C)=O	-3.83
in CC(C)CCCC(C)CCCC(C)CCCCC(C)CCCC(C)CCCC(C)C	-1.87
in CCC(C)=O	-4.46
in CCCCCC	-2.41
in CCCCCCC	-2.28
in CCCCCCCC	-2.17
in CCCCCCCCCCCCCCCC	-2.04
in CCCCCCCCO	-3.15
in CCCCCl	-3.63
in CCCCN(C=O)CCCC	-4.08
in CCCCO	-3.55
in CCCCOCCCC	-2.89
in CCO	-3.96
in CCOC(C)=O	-4.19
in CCOCC	-3.63
in CN1CCCCC1=O	-4.65
in CN(C)C=O	-4.65
in CNC(C)=O	-4.23
in CO	-4.04
in COC(C)(C)C	-3.67
in COC(C)=O	-4.53
in Cc1ccc(C)cc1	-3.44
in ClC(Cl)(Cl)Cl	-3.03
in ClC(Cl)Cl	-4.43
in ClCCCl	-4.41
in ClCCl	-4.71
in Clc1ccccc1	-3.74
in NC=O	-4.37
in O	-3.92
in O=C1CCCCC1	-4.3
in [2H]O[2H]	-4.1
in c1ccc2ncccc2c1	-3.98

CCCCCCC(=O)O
Conditions	solvation free energy, 298 K [kcal/mol]
in O	-6.12

N#CCc1ccccc1
Conditions	solvation free energy, 298 K [kcal/mol]
in CCCCCCCCCCCCCCCC	-6.06
in O	-5.05

Clc1cc(Cl)c(-c2ccc(Cl)c(Cl)c2Cl)cc1Cl
Conditions	solvation free energy, 298 K [kcal/mol]
in CCCCCCCCO	-13.2
in O	-3.34

CC(C)c1ccccc1
Conditions	solvation free energy, 298 K [kcal/mol]
in C1CCOC1	-6.5
in CC#N	-5.53
in CC(C)=O	-5.89
in CC(C)O	-5.21
in CCCCCCC	-5.72
in CCCCCCCCO	-5.43
in CO	-5.18
in NC=O	-3.38
in O	-0.34
in O=CN1CCOCC1	-5.28
in OCCO	-3.54
in OCCOCCO	-4.43
in OCCOCCOCCO	-4.56

Cc1ccc(C=O)cc1
Conditions	solvation free energy, 298 K [kcal/mol]
in O	-4.27

CC(=O)CC(=O)c1ccc(F)c(F)c1F
Conditions	solvation free energy, 298 K [kcal/mol]
in O	-5.07

Oc1ccccc1F
Conditions	solvation free energy, 298 K [kcal/mol]
in CC(C)CC(C)(C)C	-4.58
in CCCCCC	-4.69
in CCCCCCC	-4.7
in CCCCCCCC	-4.52
in CCCCCCCCCC	-4.58
in Cc1ccc(C)cc1	-5.86
in Cc1cccc(C)c1	-5.89
in Cc1ccccc1C	-5.96
in O	-5.29

CCC(C)(O)C(C)C (stereo unspecified)
Conditions	solvation free energy, 298 K [kcal/mol]
in CCCCCCCC	-5.4
in CCCCCCCCCC	-5.34

CC(C)OC=O
Conditions	solvation free energy, 298 K [kcal/mol]
in O	-2.02

Clc1cc(Cl)c(-c2ccccc2)cc1Cl
Conditions	solvation free energy, 298 K [kcal/mol]
in CCCCCCCCO	-10.6

CC=CC
Conditions	solvation free energy, 298 K [kcal/mol]
in CC(=O)N(C)C	-2.17
in CC(C)=O	-2.47
in CCOC(C)=O	-2.77
in CN(C)C=O	-2.11
in O	1.34
in O=CN1CCOCC1	-1.45

CCCCCCCN
Conditions	solvation free energy, 298 K [kcal/mol]
in CCCCCCC	-6.22

CCSCC
Conditions	solvation free energy, 298 K [kcal/mol]
in O	-1.46

C=CC(=C)CCC=C(C)C
Conditions	solvation free energy, 298 K [kcal/mol]
in O	-0.5

Cc1ccc([N+](=O)[O-])cc1
Conditions	solvation free energy, 298 K [kcal/mol]
in O	-4.96
